Experimental data reported in ChEMBL document CHEMBL4393687, “Multi-targeted ChEI-copper chelating molecules as neuroprotective agents” (Eur J Med Chem, 2019).
Active and inactive are the calls of the source. The calls are words filed in the database; no cut-off is given here.

What was measured:
[1] = target: Acetylcholinesterase (Electrophorus electricus) (UniProt O42275); assay: Inhibition of electric eel AChE at 50 nM using acetylthiocholine iodide as substrate preincubated for 60 mins followed by substrate addition measured for 5 mins by Ellman's method
[2] = target: Cholinesterase (Equus caballus) (UniProt P81908); assay: Inhibition of equine serum BChE at 50 nM using acetylthiocholine iodide as substrate preincubated for 60 mins followed by substrate addition measured for 5 mins by Ellman's method
[3] = Antioxidant activity assessed as DPPH free radical scavenging activity at 10 uM after 30 mins incubation in dark by UV-Visible spectrophotometric analysis relative to control; type: functional
[4] = Cytotoxicity against mouse HT22 cells assessed as cell viability at 30 uM after 24 hrs by MTT assay relative to control; type: cell-based, HT-22; details: read-out: Activity
[5] = Cytotoxicity against mouse HT22 cells assessed as cell viability at 100 uM after 24 hrs by MTT assay relative to control; type: cell-based, HT-22; details: read-out: Activity
[6] = Antioxidant activity assessed as DPPH free radical scavenging activity after 30 mins incubation in dark by UV-Visible spectrophotometric analysis; type: functional
[7] = Metal chelating activity assessed as compound-Cu2+ complex formation by measuring shift in maximum absorption at 10 uM after 30 mins by UV-vis spectrophotometric analysis
[8] = Metal chelating activity assessed as compound-Cu2+ complex formation at 1:1 ratio of test compound to CuCl2 incubated for 30 mins by UV-vis spectrophotometric analysis
[9] = Metal chelating activity assessed as compound-Cu2+ complex formation at 1:2 ratio of test compound to CuCl2 incubated for 30 mins by UV-vis spectrophotometric analysis
HT-22 = assay: Neuroprotective activity against glutamate-induced neuronal damage in mouse HT22 cells at 3 to 30 uM pretreated for 30 mins followed by glutamate challenge measured after 24 hrs by MTT assay; type: functional, cell-based

Chain of Cholinesterase (Equus caballus) (P81908 whole entry): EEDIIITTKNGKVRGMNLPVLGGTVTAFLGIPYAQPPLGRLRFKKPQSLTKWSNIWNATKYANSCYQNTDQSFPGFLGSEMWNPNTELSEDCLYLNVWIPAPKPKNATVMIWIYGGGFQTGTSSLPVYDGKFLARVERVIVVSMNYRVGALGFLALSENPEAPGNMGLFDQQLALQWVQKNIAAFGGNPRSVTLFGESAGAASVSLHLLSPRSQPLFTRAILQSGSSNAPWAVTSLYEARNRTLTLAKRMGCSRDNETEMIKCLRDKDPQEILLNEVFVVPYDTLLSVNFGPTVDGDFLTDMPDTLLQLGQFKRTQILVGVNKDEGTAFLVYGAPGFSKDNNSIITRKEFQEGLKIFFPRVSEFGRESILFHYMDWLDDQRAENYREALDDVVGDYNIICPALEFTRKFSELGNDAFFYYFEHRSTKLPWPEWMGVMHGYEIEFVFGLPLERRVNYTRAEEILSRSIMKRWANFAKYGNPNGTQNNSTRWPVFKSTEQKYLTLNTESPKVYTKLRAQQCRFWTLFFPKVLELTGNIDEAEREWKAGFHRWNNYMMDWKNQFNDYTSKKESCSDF
Chain of Acetylcholinesterase (Electrophorus electricus) (O42275 24-633 limits assumed): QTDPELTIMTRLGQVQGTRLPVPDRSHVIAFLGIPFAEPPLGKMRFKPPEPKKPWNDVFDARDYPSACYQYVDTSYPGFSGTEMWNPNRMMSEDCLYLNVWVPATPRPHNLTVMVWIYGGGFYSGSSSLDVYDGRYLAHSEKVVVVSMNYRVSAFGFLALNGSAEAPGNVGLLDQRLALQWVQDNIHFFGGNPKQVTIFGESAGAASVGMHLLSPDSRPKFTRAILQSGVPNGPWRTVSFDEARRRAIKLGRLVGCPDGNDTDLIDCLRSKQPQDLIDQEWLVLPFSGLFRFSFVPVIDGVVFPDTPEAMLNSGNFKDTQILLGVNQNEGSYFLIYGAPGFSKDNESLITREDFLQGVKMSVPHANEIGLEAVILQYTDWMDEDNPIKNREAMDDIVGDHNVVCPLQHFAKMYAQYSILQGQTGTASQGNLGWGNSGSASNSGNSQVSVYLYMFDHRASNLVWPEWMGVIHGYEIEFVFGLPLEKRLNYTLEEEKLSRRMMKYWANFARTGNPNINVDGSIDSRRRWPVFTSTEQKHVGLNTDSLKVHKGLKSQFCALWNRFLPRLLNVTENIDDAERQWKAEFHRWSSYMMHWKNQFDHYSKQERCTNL

SMILES: CCN(C)C(=O)Oc1cccc(CCNC(=O)c2cccnc2O)c1
- inhibition [1]: 5.43%
- inhibition [2]: 53.7%
- Activity [3]: 2.21%
- viability at 24 h, 30 µM [4]: 106%
- viability at 24 h, 100 µM [5]: 99.4%

SMILES: CCN(C)C(=O)Oc1cccc(NC(=O)c2cccnc2O)c1
- inhibition [1]: 1.87%
- inhibition [2]: 73.6%
- Activity [3]: 4.18%
- viability at 24 h, 30 µM [4]: 102%
- viability at 24 h, 100 µM [5]: 98.6%

SMILES: CCC(CC)CNc1ccc(O)c(CNCCc2cccc(OC(=O)N(C)CC)c2)c1
- inhibition [1]: 3.36%
- inhibition [2]: 14.2%
- IC50 [6]: 28.7 µM

SMILES: CCN(C)C(=O)Oc1cccc(CNCc2ccccc2O)c1
- inhibition [1]: 4.06%
- inhibition [2]: 30.5%
- Activity [3]: 17.7%
- viability at 24 h, 30 µM [4]: 96.6%
- viability at 24 h, 100 µM [5]: 90.3%

SMILES: CCN(C)C(=O)Oc1cccc(CNC(=O)c2cccnc2O)c1
- inhibition [1]: 7.59%
- inhibition [2]: 46.5%
- Activity [3]: 2.21%
- viability at 24 h, 30 µM [4]: 101%
- viability at 24 h, 100 µM [5]: 82.5%

SMILES: CCN(C)C(=O)Oc1cccc(CCNCc2ccccc2O)c1
- inhibition [1]: 3.58%
- inhibition [2]: 34.5%
- Activity [3]: 15.5%

SMILES: CCC(CC)CNc1ccc(O)c(CNc2cccc(OC(=O)N(C)CC)c2)c1
- inhibition [1]: 9.01%
- inhibition [2]: 64.2%
- IC50 [6]: 26.5 µM
- Activity [7]: 50 nm
- Activity [8]: Active
- Activity [9]: Active
- viability at 24 h, 30 µM [4]: 85.8%
- viability at 24 h, 100 µM [5]: 25.2%
- Activity (HT-22): Active

SMILES: CCN(C)C(=O)Oc1cccc([C@H](C)N(C)C)c1
- inhibition [1]: 2.59%
- inhibition [2]: 54.7%

SMILES: CCN(C)C(=O)Nc1cccc(NC(=O)c2cccnc2O)c1
- Activity [3]: 3.62%
- viability at 24 h, 30 µM [4]: 97.2%
- viability at 24 h, 100 µM [5]: 96.1%

SMILES: CCN(C)C(=O)Oc1cccc(NCc2ccccn2)c1
- inhibition [1]: 8.51%
- inhibition [2]: 58.9%
- Activity [3]: 7.4%
- viability at 24 h, 30 µM [4]: 91.3%
- viability at 24 h, 100 µM [5]: 80.5%

SMILES: CCN(C)C(=O)Oc1cccc(NCc2ccccc2O)c1
- inhibition [1]: 8.13%
- inhibition [2]: 38.5%
- Activity [3]: 13.8%
- viability at 24 h, 30 µM [4]: 103%
- viability at 24 h, 100 µM [5]: 80.3%

SMILES: Cc1c(C)c2c(c(C)c1O)CCC(C)(C(=O)O)O2 (configuration not stated) [TROLOX]
- Activity [3]: 24.3%
- IC50 [6]: 23.5 µM
